Test results reported in patent publication US8962530B2, “Inflammatory bowel disease therapies” (Regents of the University of Colorado, priority 2007, dated 2015).

Key:
[1] = system: TNBS-induced colitis; assay: Intestinal permeability, FITC-labeled-dextran method, TNBS-colitis model; format: in vivo; conditions: TNBS-colitis mice; 60 mg/kg i.p.; FITC-dextran gavage after 20 hours, serum four hours later; compared to vehicle control
From the text: (§1) The effectiveness of compounds and methods of the present invention on intestinal barrier protection and treatment of inflammatory bowel disease (IBD) in TNBS (2,4,6-trinitrobenzene sulfonic acid)-induced colitis, an established animal model of inflammatory bowel disease, was examined. TNBS-induced colitis was induced in mice using a modification of techniques previously described. (See Morris et al (1989) Gastroenterology 96:795-803; Boirivant et al (1998) J Exp Med 188:1929-1939; Karhausen et al (2004) J Clin Invest 114:1098-1106.) Mice were shaved on the abdomen (causing total depletion of hair and microlesions) and were then sensitized to subsequent treatment by epicutaneous application of 1% TNBS (Sigma-Aldrich) in 100% ethanol on day minus 7. Seven days later, on day 0, animals were sedated with a 2.5% Tribromoethanol solution in phosphate-buffered saline (14 μl/g body weight), followed by intrarectal administration of a 2.5% TNBS solution in 50% ethanol (5 μl/g body weight). Administration of the 2.5% TNBS solution was carried out using an epidural catheter ([…] Plus Epidural Catheter, Arrow International), which was inserted approximately 6 cm ab ano followed by release of the TNBS solution. […] Four hours later, changes in intestinal permeability were determined by measurement of serum FITC-dextran levels.

[2] = system: TNBS-induced colitis; assay: Colon length shortening in TNBS-colitis model; format: in vivo; conditions: TNBS-colitis mice, vehicle-treated greater than 17%
From the text: as §1, with “Colon length was” for “Four hours later, changes in intestinal permeability were”, “the distance from the most distal aspect of the cecum to the most terminal aspect of the rectum on day 3 post-induction of TNBS-colitis.” for “serum FITC-dextran levels.”

With `O=C(O)CNC(=O)c1ncc2cc(Sc3ccccc3)ccc2c1O` [Compound A, [(4-Hydroxy-7-phenylsulfanyl-isoquinoline-3-carbonyl)-amino]-acetic acid] the “serum FITC-dextran levels (intestinal permeability)” value [1] was “lower levels of serum FITC-dextran”, the “average decrease in colon length at day 3” value ([2]; 20 mg/kg i.p. on day minus 1, day 0, day 1) was “approximately 12%” and the “average decrease in colon length at day 3” value ([2]; 40 mg/kg i.p. on day minus 1, day 0, day 1) was about 8%.
